Our source for the IC50 values is BindingDB's records for patent US11807646 (Almac Discovery, 2023).

This assay deals with T1, Ubiquitin carboxyl-terminal hydrolase 19 (Homo sapiens, UniProt O94966).
T1 sequence (O94966 whole entry): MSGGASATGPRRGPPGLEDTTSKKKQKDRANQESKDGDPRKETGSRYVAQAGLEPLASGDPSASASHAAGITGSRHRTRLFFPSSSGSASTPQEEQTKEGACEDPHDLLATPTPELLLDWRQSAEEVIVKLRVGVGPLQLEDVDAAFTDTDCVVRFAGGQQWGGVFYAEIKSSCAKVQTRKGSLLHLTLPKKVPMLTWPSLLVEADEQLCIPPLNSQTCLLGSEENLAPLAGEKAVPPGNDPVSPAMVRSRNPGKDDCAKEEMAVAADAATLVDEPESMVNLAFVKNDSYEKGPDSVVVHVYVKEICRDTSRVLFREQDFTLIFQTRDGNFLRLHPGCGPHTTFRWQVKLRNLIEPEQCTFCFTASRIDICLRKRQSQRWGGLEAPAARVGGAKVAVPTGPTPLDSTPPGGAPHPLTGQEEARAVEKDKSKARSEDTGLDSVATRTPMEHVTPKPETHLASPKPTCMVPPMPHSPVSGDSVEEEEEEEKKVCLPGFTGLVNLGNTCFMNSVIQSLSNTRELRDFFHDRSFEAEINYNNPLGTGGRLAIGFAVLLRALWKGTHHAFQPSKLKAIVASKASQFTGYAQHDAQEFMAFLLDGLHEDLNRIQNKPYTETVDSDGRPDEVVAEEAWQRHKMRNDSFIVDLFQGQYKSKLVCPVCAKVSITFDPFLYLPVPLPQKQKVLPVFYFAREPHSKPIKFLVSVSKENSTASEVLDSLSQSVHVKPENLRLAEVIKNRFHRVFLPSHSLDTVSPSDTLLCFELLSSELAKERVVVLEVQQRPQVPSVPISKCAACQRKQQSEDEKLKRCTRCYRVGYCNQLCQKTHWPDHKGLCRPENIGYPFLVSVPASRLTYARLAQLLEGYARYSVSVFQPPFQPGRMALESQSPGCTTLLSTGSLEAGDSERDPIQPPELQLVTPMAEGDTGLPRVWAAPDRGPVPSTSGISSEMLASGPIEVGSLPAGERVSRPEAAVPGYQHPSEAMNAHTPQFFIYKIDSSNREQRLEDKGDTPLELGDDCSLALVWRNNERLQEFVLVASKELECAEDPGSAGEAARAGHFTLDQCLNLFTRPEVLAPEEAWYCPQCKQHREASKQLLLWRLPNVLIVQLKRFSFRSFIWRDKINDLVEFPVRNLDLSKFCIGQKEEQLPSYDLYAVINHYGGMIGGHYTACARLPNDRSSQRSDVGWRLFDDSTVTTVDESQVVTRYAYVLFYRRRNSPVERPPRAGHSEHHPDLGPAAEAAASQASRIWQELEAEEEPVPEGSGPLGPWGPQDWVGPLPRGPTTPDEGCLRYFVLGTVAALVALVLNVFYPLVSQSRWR
Briefly: Fluorescence Polarization (FP) Homogeneous Assay. How it is done: Unless otherwise stated, all other reagents were purchased from Sigma. Enzymatic reactions were conducted in black flat bottom polystyrene 384-well plates (Nunc) and 30 μL total volume. […] Inhibitors were stored as 10 mM DMSO stocks in an inert environment (low humidity, dark, low oxygen, room temperature) using the Storage Pod System and serial dilutions were prepared in buffer just prior to the assay (from 200 μM to 2 pM, 8-18 data point curve). Following incubation at rt for 30 min, the enzymatic reactions were initiated by dispensing the Ub substrate (500 nM, 10 μL). FP was measured every 15 min over a period of 90 min (within the linear range of the assay) using a Synergy 4 plate reader (BioTek) exciting at 530 nm and measuring the amount of parallel and perpendicular light at 575 nm. The FP signal was subsequently normalized to the no compound control.

SMILES strings stand for the structures. pIC50: −log10 of the molar value.

In the case of `O=C1CN(c2ccccc2)CCN1CC1(O)CCN(C(=O)NCc2ccccc2)CC12CCCC2` (configuration not stated) [US11807646, Example 109], the negative-log IC50 (pIC50) is over 6.30.

Take `CS(C)(=O)=Nc1cn(CC2(O)CCN(C(=O)N3CCNC[C@H]3c3ccccc3)CC23CCCC3)c(=O)cc1-c1ccccc1` (some centres not stated) [US11807646, Example 191]: the pIC50 is over 6.30.

`O=C(N1CC[C@@](O)(Cn2ncc(-c3ccccc3)cc2=O)C2(CCCC2)C1)N1CCOC[C@H]1c1ccccc1` [US11807646, Example 280]: the pIC50 was over 6.30.

As for `CN(C)c1cc(=O)n(C[C@]2(O)CCN(C(=O)N3CCNC[C@H]3c3ccccc3)CC23CCCC3)cn1` [US11807646, Example 318], the pIC50 is over 6.30.

Regarding `O=C(N1CCC(O)(Cn2cnc(-c3ccccc3)cc2=O)C2(CCOCC2)C1)N1CCNC[C@H]1c1ccccc1` (some centres not stated) [US11807646, Example 321], the negative-log IC50 (pIC50) was over 6.30.

`O=C(N1CC[C@@](O)(Cn2cc(F)c(-c3ccccc3)cc2=O)C2(CCCC2)C1)N1CCNC[C@H]1c1ccccc1` [US11807646, Example 331]: the negative-log IC50 (pIC50) is over 6.30.

`O=C(N1CC[C@@](O)(Cn2cnc(-c3ccccc3)cc2=O)C2(CCCC2)C1)N1CC[S+]([O-])CC1c1ccccc1` (some centres not stated) [US11807646, Example 337]: the pIC50 was over 6.30.
